Source: patent EP1963277B1, “FLUORINATED COMPOUNDS” (priority 2005, dated 2007)
Like-named read-outs stand apart in the source and are kept apart here.

Legend:
Assay type in all cases: in vivo
SNI rats [1] = assay: Spared Nerve Injury (SNI) model, mechanical allodynia (Dynamic Plantar Aesthesiometer); settings: for withdrawal threshold, Post Admin 30 min / withdrawal threshold, Post Admin 180 min / withdrawal threshold, Post Admin 60 min: *** P<0.001 vs Pre-Admin.; for withdrawal threshold, Pre-Admin. 0 min: baseline before administration
Procedure: (§1) The compounds were tested for their efficacy in reducing mechanical allodynia and cold allodynia in the spared nerve injury (SNI) model of chronic neuropathic pain. In this model, the left sciatic nerve of the rat is exposed under anesthesia. Two of the branches of the sciatic nerve viz. the common peroneal and tibial nerve are ligated and sectioned. The third branch (sural nerve) is left intact. The animals were allowed a post-operative recovery period of 7 days before they were subjected to any test.
The presence of mechanical allodynia was assessed using the Dynamic Plantar Aesthesiometer (Ugo Basile, Italy) which is a modified version of the Von Frey Hair test. In this, a test filament is positioned below the animal's hind paw and the unit is activated which causes the filament to move up and touch the plantar surface of the hind paw. Increasing force is applied to the paw via the filament. […] The cut-off force is set at 50 g. The tests were done on both the non-injured (control) and the injured (SNI) paw.
Testing of compounds was done after 21 days post-operatively. After initial basal readings were taken, the test compound or the vehicle was administered (10 ml/kg) either intraperitoneally (30 mg/kg) or orally (60 mg/kg). The readings were taken again 30, 60 and 180 min after the compound/vehicle administration.

[2] = tested on: Male, Sprague-Dawley rats; assay: Maximal Electroshock Assay (rat); settings: for duration of action: rat MES, judged by similar potency at 0.5h and 4h pretreatment timepoints; for Ratio ED50 4h vs. 0.5h / shift in ED50 for 0.5 vs. 4h / ED50: rat; for Ratio ED50 4h vs. 0.5h / shift in ED50 for 0.5 vs. 4h: oral; for ED50: oral pretreatment, range in parentheses
Procedure: Male, Sprague-Dawley rats (approx. 100g body weight) were prescreened for tonic seizure susceptibility prior to drug testing. […] Protection was defined by the absence of a tonic extensor seizure in the animal within 20s of application of the electrical stimulus, which typically occurred in all vehicle pretreated animals. Animals received only one electroshock on the drug test day and so separate animals were used for the 0.5h and 4h timepoints. All drugs were administered in multiple doses.

Male, CD-1 mice = assay: Maximal Electroshock Assay (mouse); settings: for duration of action: mouse MES, judged by similar potency at 1h and 4h pretreatment timepoints; for Ratio ED50 4h vs. 1h / shift in ED50 for 1 vs. 4h / ED50: mouse; for Ratio ED50 4h vs. 1h / shift in ED50 for 1 vs. 4h: oral; for ED50: oral pretreatment, range in parentheses
Procedure: Male, CD-1 mice (20-30g body weight) were orally pretreated with test compound or vehicle control, and either at 1h or 4h post dose a maximal electroshock (45mA amplitude, 0.2s duration, 60Hz) was applied by corneal electrodes. Protection was defined by the absence of a tonic extensor seizure in the animal within 20s of application of the electrical stimulus, which typically occurred in all vehicle pretreated animals. Animals received only one electroshock and so separate animals were used for the 1h and 4h timepoints. All drugs were administered in multiple doses.

rats = assay: Persistent Inflammatory Pain (Formalin Model); settings: Rattus norvegicus, formalin test, 30 min pretreatment; for inhibition at 30 mg/kg: ip, i.p.; for inhibition at 60 mg/kg: po, p.o.
Procedure: The formalin test is a chemically-induced tonic pain model in which injection of formalin into a hind paw elicits a biphasic nociceptive behavior. The second phase of formalin response is predominantly due to a central sensitization phenomenon. Most clinically used drugs against neuropathic pain arc active on this second phase of formalin response. Formalin test is accepted as a valid model of persistent clinical pain.
The test was done by pretreating the rats with the test compound and 30 min later (pretreatment time), 50 µl of 2.5% formalin was injected into the right hind paw of the animal. The number of paw licking and flinching episodes were scored for 60 min post-formalin injection.
The compounds were administered either intraperitoneally (30 mg/kg) or orally (60 mg/kg).

FCA-treated rats [3] = assay: Freund's Complete Adjuvant (FCA) model, mechanical allodynia (modified Randall-Selitto method); settings: p.o.; for paw withdrawal threshold (g), Post Admin 30 min / paw withdrawal threshold (g), Post Admin 60 min / paw withdrawal threshold (g), Post Admin 180 min: 60 mg/kg, ** P<0.01, *** P<0.001 vs Pre-Admin.; for paw withdrawal threshold (g), Pre-Admin. 0 min: group later given 60 mg/kg, baseline before administration
Procedure: (§2) Administration of FCA to the hind paw of an animal induces the formation of a localized edema and has been widely used as a model of chronic inflammatory pain. 100 µl of FCA is injected subcutaneously into the dorsal aspect of the left hind paw of the rats. The edema appears within 2 h reaches a peak by 6h and lasts for about 7 days. The effects of compounds on mechanical allodynia and paw volume were studied 2 days after FCA administration.
The effect of the compounds in alleviating mechanical allodynia was assessed in the FCA-treated rats using the modified Randall-Selitto method (Analgesy-Meter, Ugo Basile, Italy). The animal's paw is placed on a small plinth under a cone-shaped pusher. Increasing force is applied to the paw by depressing a pedal until vocalization or withdrawal of the paw occurs. The minimum force required to elicit this vocalization/withdrawal is the paw pressure threshold. The cut-off was set at 150 g.
After the initial basal (control) readings were taken, the test compound (60 mg/kg)/vehicle was administered orally in a volume of 10 ml/kg. The paw pressure thresholds were measured 30, 60 and 180 min post administration. […] Some of the compounds were effective even at 60 and 180 min post administration.

SNI rats [4] = assay: Spared Nerve Injury (SNI) model, cold allodynia (acetone test); settings: for duration (s) of nociceptive response, Post Admin 30 min: *** P<0.001 vs Pre-Admin.; for duration (s) of nociceptive response, Pre-Admin. 0 min: baseline before administration
Procedure: as §1
Cold allodynia was assessed by using the acetone test. In this model, 25 µl of acetone is sprayed on to the plantar surface of the hind paw. Evaporation of acetone causes cooling of the skin. The cold stimulus sets up nociceptive responses from the injured paw as evidenced by paw lifting, paw licking and grooming. The duration of the nociceptive responses is noted.
Testing of compounds was done after 21 days post-operatively. After initial basal readings were taken, the test compound or the vehicle was administered (10 ml/kg) either intraperitoneally (30 mg/kg) or orally (60 mg/kg). The readings were taken 30 min after the administration.

FCA-treated rats [5] = assay: Freund's Complete Adjuvant (FCA) model, paw edema/volume (plethysmometer); settings: p.o.; for paw volume (ml), Post Admin 30 min / paw volume (ml), Post Admin 60 min: 60 mg/kg; for paw volume (ml), Pre-Admin. 0 min: group later given 60 mg/kg, baseline before administration
Procedure: as §2
The edema/volume of the paw is a measure of inflammation induced by FCA. This was measured by using a plethysmometer (Ugo Basile, Italy). In this, the paw of the rat is immersed in a reservoir of water and the volume of water displaced indicates the paw volume.
After the initial basal (control) readings were taken, the test compound (60 mg/kg)/vehicle was administered orally in a volume of 10 ml/kg.

[6] = group later given 30 mg/kg, i.p.
[7] = group later given 60 mg/kg, p.o.
[8] = read-out: MES oral ED50 0.5h, electroshock 0.5h post dose
[9] = read-out: MES oral ED50 4h, electroshock 4h post dose
[10] = electroshock 1h post dose, blockade of tonic extensor seizure, read-out: MES oral ED50 1h
[11] = *** P<0.001, read-out: %Inhibition Phase I
[12] = *** P<0.001, read-out: %Inhibition Phase II
[13] = ** P<0.01, *** P<0.001, read-out: %Inhibition Phase II

Compound: CC(=O)NC(COC(F)F)C(=O)NCc1ccccc1 (centres unmarked) [Compound 3, 2-(Acetylamino)-N-benzyl-3-(difluoromethoxy)propanamide]
- withdrawal threshold, Post Admin 30 min (SNI rats [1]; 30 mg/kg, i.p.): 22.5 ± 2.1*** g
- withdrawal threshold, Post Admin 180 min (SNI rats [1]; 30 mg/kg, i.p.): 14.1 ± 1.6*** g
- withdrawal threshold, Post Admin 30 min (SNI rats [1]; 60 mg/kg, p.o.): 19.4 ± 2.3*** g
- withdrawal threshold, Post Admin 60 min (SNI rats [1]; 60 mg/kg, p.o.): 20.6 ± 3.1*** g
- withdrawal threshold, Post Admin 180 min (SNI rats [1]; 60 mg/kg, p.o.): 10.8 ± 1.8 g
- withdrawal threshold, Pre-Admin. 0 min (SNI rats [1]; [6]): 7.5 ± 1.4 g
- withdrawal threshold, Pre-Admin. 0 min (SNI rats [1]; [7]): 9.7 ± 2.5 g
- duration of action [2]: longer than Lacosamide
- Ratio ED50 4h vs. 0.5h [2]: 1.4
- shift in ED50 for 0.5 vs. 4h [2]: 1 to 1.4 fold
- ED50 [2, 8]: 3 mg/kg
- ED50 [2, 9]: 4.2 mg/kg
- duration of action (Male, CD-1 mice): longer than Lacosamide
- Ratio ED50 4h vs. 1h (Male, CD-1 mice): 3.5
- shift in ED50 for 1 vs. 4h (Male, CD-1 mice): 1 to 3.5 fold
- ED50 (Male, CD-1 mice; [10]): 5.7 mg/kg
- ED50 (Male, CD-1 mice; [9]): 20 mg/kg
- inhibition at 30 mg/kg (rats; [11]): 87.9 ± 12.1%
- inhibition at 30 mg/kg (rats; [12]): 90.2 ± 6.5%
- inhibition at 60 mg/kg (rats; [13]): 46.1 ± 8.7%
- inhibition at 60 mg/kg (rats; read-out: %Inhibition Phase I): 21.4 ± 10.2%
- paw withdrawal threshold (g), Post Admin 30 min (FCA-treated rats [3]): 57.8 ± 4.9** g
- paw withdrawal threshold (g), Post Admin 60 min (FCA-treated rats [3]): 46.7 ± 3.8 g
- paw withdrawal threshold (g), Post Admin 180 min (FCA-treated rats [3]): 37.8 ± 5.4 g
- paw withdrawal threshold (g), Pre-Admin. 0 min (FCA-treated rats [3]): 32.8 ± 6.5 g
- duration (s) of nociceptive response, Post Admin 30 min (SNI rats [4]; 30 mg/kg, i.p.): 4.3 ± 1.6*** s
- duration (s) of nociceptive response, Post Admin 30 min (SNI rats [4]; 60 mg/kg, p.o.): 17.2 ± 6.2*** s
- duration (s) of nociceptive response, Pre-Admin. 0 min (SNI rats [4]; [6]): 45.8 ± 9.4 s
- duration (s) of nociceptive response, Pre-Admin. 0 min (SNI rats [4]; [7]): 70.7 ± 18.9 s
- paw volume (ml), Post Admin 30 min (FCA-treated rats [5]): 2.3 ± 0.1 mL
- paw volume (ml), Post Admin 60 min (FCA-treated rats [5]): 2.3 ± .01 mL
- paw volume (ml), Pre-Admin. 0 min (FCA-treated rats [5]): 2.3 ± 0.0 mL

Compound: CC(=O)NC(COC(F)F)C(=O)NCc1ccc(F)cc1 (centres unmarked) [Compound 4, 2-(Acetylamino)-3-(difluoromethoxy)-N-(4-fluoro-benzyl)propanamide]
- withdrawal threshold, Post Admin 30 min (SNI rats [1]; 30 mg/kg, i.p.): 16.7 ± 1.4*** g
- withdrawal threshold, Post Admin 60 min (SNI rats [1]; 30 mg/kg, i.p.): 15.0 ± 0.8*** g
- withdrawal threshold, Post Admin 180 min (SNI rats [1]; 30 mg/kg, i.p.): 13.2 ± 1.0*** g
- withdrawal threshold, Post Admin 30 min (SNI rats [1]; 60 mg/kg, p.o.): 15.4 ± 1.1*** g
- withdrawal threshold, Post Admin 60 min (SNI rats [1]; 60 mg/kg, p.o.): 16.2 ± 1.7*** g
- withdrawal threshold, Post Admin 180 min (SNI rats [1]; 60 mg/kg, p.o.): 7.9 ± 0.6 g
- withdrawal threshold, Pre-Admin. 0 min (SNI rats [1]; [6]): 6.7 ± 0.7 g
- withdrawal threshold, Pre-Admin. 0 min (SNI rats [1]; [7]): 7.5 ± 0.5 g
- duration of action [2]: longer than Lacosamide
- Ratio ED50 4h vs. 0.5h [2]: 1.0
- shift in ED50 for 0.5 vs. 4h [2]: 1 to 1.4 fold
- ED50 [2, 8]: 3.3 mg/kg
- ED50 [2, 9]: 3.4 mg/kg
- duration of action (Male, CD-1 mice): longer than Lacosamide
- Ratio ED50 4h vs. 1h (Male, CD-1 mice): 1.0
- shift in ED50 for 1 vs. 4h (Male, CD-1 mice): 1 to 3.5 fold
- ED50 (Male, CD-1 mice; [10]): 9.8 mg/kg
- ED50 (Male, CD-1 mice; [9]): 9.8 mg/kg
- inhibition at 30 mg/kg (rats; [11]): 94.7 ± 5.3%
- inhibition at 30 mg/kg (rats; [12]): 81.6 ± 10%
- inhibition at 60 mg/kg (rats; [13]): 41.9 ± 9%
- inhibition at 60 mg/kg (rats; read-out: %Inhibition Phase I): 7.6 ± 6.7%
- paw withdrawal threshold (g), Post Admin 30 min (FCA-treated rats [3]): 58.3 ± 4.8** g
- paw withdrawal threshold (g), Post Admin 60 min (FCA-treated rats [3]): 49.4 ± 6.4** g
- paw withdrawal threshold (g), Post Admin 180 min (FCA-treated rats [3]): 51.1 ± 8.9** g
- paw withdrawal threshold (g), Pre-Admin. 0 min (FCA-treated rats [3]): 33.9 ± 4.2 g
- duration (s) of nociceptive response, Post Admin 30 min (SNI rats [4]; 30 mg/kg, i.p.): 3.1 ± 2.1*** s
- duration (s) of nociceptive response, Post Admin 30 min (SNI rats [4]; 60 mg/kg, p.o.): 21.9 ± 6.4*** s
- duration (s) of nociceptive response, Pre-Admin. 0 min (SNI rats [4]; [6]): 48.2 ± 10.1 s
- duration (s) of nociceptive response, Pre-Admin. 0 min (SNI rats [4]; [7]): 56.2 ± 8.4 s
- paw volume (ml), Post Admin 30 min (FCA-treated rats [5]): 2.08 ± 0.0 mL
- paw volume (ml), Post Admin 60 min (FCA-treated rats [5]): 2.11 ± 0.0 mL
- paw volume (ml), Pre-Admin. 0 min (FCA-treated rats [5]): 2.01 ± 0.0 mL

Compound: COC[C@@H](NC(C)=O)C(=O)NCc1ccccc1 [Lacosamide, R-2-acetamido-N-benzyl-3-methoxy-propanamide, reference compound]
- ED50 [2, 8]: 1.8 mg/kg
- ED50 [2, 9]: 8.3 mg/kg
- ED50 (Male, CD-1 mice; [9]): 32 mg/kg
